Results: patent EP4603105A1, “PHARMACEUTICAL COMPOSITION CONTAINING CYCLIC COMPOUND HAVING SELECTIVE KRAS INHIBITORY EFFECT AGAINST HRAS AND NRAS” (CHUGAI SEIYAKU KABUSHIKI KAISHA, priority 2022, dated 2024)
Where a SMILES comes first, the peptide text is derived from it. Bridges are numbered along the chain shown (N, C = ends). [ ]: non-standard residue; d: D form. The star is where a group is joined. hPhe(3-Cl-4-CF3) = N[C@@H](CCc1ccc(C(F)(F)F)c(Cl)c1)C(=O)O; NPrPhe(4-CF3) = CCCN[C@@H](Cc1ccc(C(F)(F)F)cc1)C(=O)O; Pro(4-spirocPr) = O=C(O)[C@@H]1CC2(CC2)CN1; Abu(4,4,4-F3) = N[C@@H](CC(F)(F)F)C(=O)O; Morpholine(3S-CO) = O=C(O)[C@@H]1COCCN1; Pip(4,4-F2) = O=C(O)[C@@H]1CC(F)(F)CCN1; NMeGly(cPent) = CN[C@H](C(=O)O)C1CCCC1; Gly(cPent) = N[C@H](C(=O)O)C1CCCC1; Hyp = O=C(O)[C@@H]1C[C@@H](O)CN1; Gly(cBu) = N[C@H](C(=O)O)C1CCC1; NMeD = CN[C@@H](CC(=O)O)C(=O)O; NMeL = CN[C@@H](CC(C)C)C(=O)O; Pip = O=C(O)[C@@H]1CCCCN1; Morpholide = C1CN(*)CCO1; NMeA = CN[C@@H](C)C(=O)O; Ac5c = NC1(C(=O)O)CCCC1; Aze = O=C(O)[C@@H]1CCN1; NcPrGly = O=C(O)CNC1CC1; Abu = CC[C@H](N)C(=O)O; NPrGly = CCCNCC(=O)O; Sar = CNCC(=O)O

Experiments:
[1] = system: human lung cancer strain NCI-H441; assay type: cell-based
Summary of the method: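 Proliferation was scored by […] measured after the reagent was added to cultures kept at 37°C in 5% carbon dioxide.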

[2] = target: GDP-bound NRAS wild-type protein (Homo sapiens, UniProt P01111); assay: Binding to NRAS by surface plasmon resonance (SPR), KD and KD ratio to KRAS; settings: ratio of KD for GDP-bound NRAS wild-type protein to KD for KRAS
GDP-bound NRAS wild-type protein, sequence (P01111 whole entry): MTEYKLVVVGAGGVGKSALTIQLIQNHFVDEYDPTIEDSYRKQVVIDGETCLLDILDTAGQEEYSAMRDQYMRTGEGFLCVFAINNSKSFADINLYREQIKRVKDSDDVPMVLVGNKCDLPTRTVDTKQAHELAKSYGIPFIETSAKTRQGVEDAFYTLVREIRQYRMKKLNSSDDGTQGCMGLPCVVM
Summary of the method: (§1)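 Compound binding is evaluated by SPR single-cycle kinetics, with concentrations added intermittently from low to high for 75 s each. Target surfaces carry GDP-loaded biotinylated Avi-RAS at about 100–300 RU, regenerated after each cycle; temperature 30°C. A 1:1 binding model gives KD.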

HRAS wild-type protein = HRAS wild-type protein (Homo sapiens, UniProt P01112); assay: Binding to HRAS by surface plasmon resonance (SPR), KD and KD ratio to KRAS; settings: ratio of KD for HRAS wild-type protein to KD for KRAS
HRAS wild-type protein, sequence (P01112 whole entry): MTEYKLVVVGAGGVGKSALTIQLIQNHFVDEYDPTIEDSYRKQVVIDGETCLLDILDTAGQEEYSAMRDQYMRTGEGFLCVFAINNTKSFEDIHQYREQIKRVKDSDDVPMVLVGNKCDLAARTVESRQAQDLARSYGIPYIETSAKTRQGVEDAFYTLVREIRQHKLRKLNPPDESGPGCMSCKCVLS
Summary of the method: as §1

Compound	IC50 [1] [nM]	NRAS /KRAS [2]	HRAS /KRAS (HRAS wild-type protein)
CCCN1C(=O)CN(C)C(=O)CN(C)C(=O)[C@H]([C@@H](C)CC)NC(=O)[C@H](CC(C)C)N(C)C(=O)C[C@@H](C(=O)N2CCOCC2)N(C)C(=O)[C@H](C2CCCC2)N(C)C(=O)C2(CCCC2)NC(=O)[C@@H]2CCN2C(=O)[C@H](CCc2ccc(C(F)(F)F)c(Cl)c2)NC(=O)CN(C)C(=O)[C@@H]1Cc1ccc(C(F)(F)F)cc1 [PP0260] ([NMeL]I[Sar][Sar][NPrPhe(4-CF3)][Sar][hPhe(3-Cl-4-CF3)][Aze][Ac5c][NMeGly(cPent)][NMeD]-Morpholide; lactam N-11)	16.8	B (a compound having 3 or more and less than 10 is denoted as B)	C (A compound having a KD ratio of 0.1 or more and less than 3 is denoted as C)
CCCN1C(=O)CN(C)C(=O)CN(C)C(=O)[C@H]([C@@H](C)CC)NC(=O)[C@H](CC(C)C)N(C)C(=O)C[C@@H](C(=O)N2CCOCC2)N(C)C(=O)[C@H](C2CCCC2)N(C)C(=O)C2(CCCC2)NC(=O)[C@@H]2CC3(CC3)CN2C(=O)[C@H](CCc2ccc(C(F)(F)F)c(Cl)c2)NC(=O)CN(C)C(=O)[C@@H]1Cc1ccc(C(F)(F)F)cc1 [PP0261] ([NMeL]I[Sar][Sar][NPrPhe(4-CF3)][Sar][hPhe(3-Cl-4-CF3)][Pro(4-spirocPr)][Ac5c][NMeGly(cPent)][NMeD]-Morpholide; lactam N-11)	4.6	B (a compound having 3 or more and less than 10 is denoted as B)	C (A compound having a KD ratio of 0.1 or more and less than 3 is denoted as C)
CCCN1C(=O)CN(C)C(=O)CN(C)C(=O)[C@H]([C@@H](C)CC)NC(=O)[C@H](CC(C)C)N(C)C(=O)C[C@@H](C(=O)N2CCOCC2)N(C)C(=O)[C@H](C2CCCC2)N(C)C(=O)C2(CCCC2)NC(=O)[C@@H]2C[C@@H](OC)CN2C(=O)[C@H](CCc2ccc(C(F)(F)F)c(Cl)c2)NC(=O)CN(C)C(=O)[C@@H]1Cc1ccc(C(F)(F)F)cc1 [PP0262] ([NMeL]I[Sar][Sar][NPrPhe(4-CF3)][Sar][hPhe(3-Cl-4-CF3)][Hyp](Me)[Ac5c][NMeGly(cPent)][NMeD]-Morpholide; lactam N-11)	1.9	B (a compound having 3 or more and less than 10 is denoted as B)	B (a compound having 3 or more and less than 10 is denoted as B)
CCCN1C(=O)CN(C)C(=O)CN(C)C(=O)[C@H]([C@@H](C)CC)NC(=O)[C@H](CC(C)C)N(C)C(=O)C[C@@H](C(=O)N2CCOCC2)N(C)C(=O)[C@H](C2CCCC2)N(C)C(=O)C2(CCCC2)NC(=O)[C@@H]2CCCCN2C(=O)[C@H](CCc2ccc(C(F)(F)F)c(Cl)c2)NC(=O)CN(C)C(=O)[C@@H]1Cc1ccc(C(F)(F)F)cc1 [PP0263] ([NMeL]I[Sar][Sar][NPrPhe(4-CF3)][Sar][hPhe(3-Cl-4-CF3)][Pip][Ac5c][NMeGly(cPent)][NMeD]-Morpholide; lactam N-11)	19.2	B (a compound having 3 or more and less than 10 is denoted as B)	C (A compound having a KD ratio of 0.1 or more and less than 3 is denoted as C)
CCCN1C(=O)CN(C)C(=O)CN(C)C(=O)[C@H]([C@@H](C)CC)NC(=O)[C@H](CC(C)C)N(C)C(=O)C[C@@H](C(=O)N2CCOCC2)N(C)C(=O)[C@H](C2CCCC2)N(C)C(=O)C2(CCCC2)NC(=O)[C@@H]2CC(F)(F)CCN2C(=O)[C@H](CCc2ccc(C(F)(F)F)c(Cl)c2)NC(=O)CN(C)C(=O)[C@@H]1Cc1ccc(C(F)(F)F)cc1 [PP0264] ([NMeL]I[Sar][Sar][NPrPhe(4-CF3)][Sar][hPhe(3-Cl-4-CF3)][Pip(4,4-F2)][Ac5c][NMeGly(cPent)][NMeD]-Morpholide; lactam N-11)	16.4	B (a compound having 3 or more and less than 10 is denoted as B)	C (A compound having a KD ratio of 0.1 or more and less than 3 is denoted as C)
CCCN1C(=O)CN(C)C(=O)CN(C)C(=O)[C@H]([C@@H](C)CC)NC(=O)[C@H](CC(C)C)N(C)C(=O)C[C@@H](C(=O)N2CCOCC2)N(C)C(=O)[C@H](C2CCCC2)N(C)C(=O)C2(CCCC2)NC(=O)[C@@H]2COCCN2C(=O)[C@H](CCc2ccc(C(F)(F)F)c(Cl)c2)NC(=O)CN(C)C(=O)[C@@H]1Cc1ccc(C(F)(F)F)cc1 [PP0265] ([NMeL]I[Sar][Sar][NPrPhe(4-CF3)][Sar][hPhe(3-Cl-4-CF3)][Morpholine(3S-CO)][Ac5c][NMeGly(cPent)][NMeD]-Morpholide; lactam N-11)	13.3	B (a compound having 3 or more and less than 10 is denoted as B)	C (A compound having a KD ratio of 0.1 or more and less than 3 is denoted as C)
CCCN1CC(=O)NC2(CCCC2)C(=O)N(C)[C@@H](C2CCCC2)C(=O)N(C)[C@H](C(=O)N2CCOCC2)CC(=O)N(C)[C@@H](CC(C)C)C(=O)N[C@@H]([C@@H](C)CC)C(=O)N(C)CC(=O)N(C)CC(=O)N(CCC)[C@@H](Cc2ccc(C(F)(F)F)cc2)C(=O)N(C)CC(=O)N[C@@H](CCc2ccc(C(F)(F)F)c(Cl)c2)C1=O [PP0267] ([NMeL]I[Sar][Sar][NPrPhe(4-CF3)][Sar][hPhe(3-Cl-4-CF3)][NPrGly][Ac5c][NMeGly(cPent)][NMeD]-Morpholide; lactam N-11)	38.2	B (a compound having 3 or more and less than 10 is denoted as B)	B (a compound having 3 or more and less than 10 is denoted as B)
CCCN1C(=O)[C@@H]2CCN2C(=O)[C@H](C)N(C)C(=O)[C@H](CC)NC(=O)[C@H](CC(C)C)N(C)C(=O)C[C@@H](C(=O)N2CCOCC2)N(C)C(=O)[C@H](C2CCCC2)N(C)C(=O)C2(CCCC2)NC(=O)[C@@H]2CCCN2C(=O)[C@H](CCc2ccc(C(F)(F)F)c(Cl)c2)NC(=O)CN(C)C(=O)[C@@H]1Cc1ccc(C(F)(F)F)cc1 [PP0269] ([NMeL][Abu][NMeA][Aze][NPrPhe(4-CF3)][Sar][hPhe(3-Cl-4-CF3)]P[Ac5c][NMeGly(cPent)][NMeD]-Morpholide; lactam N-11)	34.7	C (A compound having a KD ratio of 0.1 or more and less than 3 is denoted as C)	B (a compound having 3 or more and less than 10 is denoted as B)
CCCN1C(=O)[C@@H]2CCN2C(=O)[C@H](C)N(C)C(=O)[C@H](CC(F)(F)F)NC(=O)[C@H](CC(C)C)N(C)C(=O)C[C@@H](C(=O)N2CCOCC2)N(C)C(=O)[C@H](C2CCCC2)N(C)C(=O)C2(CCCC2)NC(=O)[C@@H]2CCCN2C(=O)[C@H](CCc2ccc(C(F)(F)F)c(Cl)c2)NC(=O)CN(C)C(=O)[C@@H]1Cc1ccc(C(F)(F)F)cc1 [PP0270] ([NMeL][Abu(4,4,4-F3)][NMeA][Aze][NPrPhe(4-CF3)][Sar][hPhe(3-Cl-4-CF3)]P[Ac5c][NMeGly(cPent)][NMeD]-Morpholide; lactam N-11)	8.5	C (A compound having a KD ratio of 0.1 or more and less than 3 is denoted as C)	B (a compound having 3 or more and less than 10 is denoted as B)
CCCN1C(=O)[C@@H]2CCN2C(=O)[C@H](C)N(C)C(=O)[C@H](C2CCC2)NC(=O)[C@H](CC(C)C)N(C)C(=O)C[C@@H](C(=O)N2CCOCC2)N(C)C(=O)[C@H](C2CCCC2)N(C)C(=O)C2(CCCC2)NC(=O)[C@@H]2CCCN2C(=O)[C@H](CCc2ccc(C(F)(F)F)c(Cl)c2)NC(=O)CN(C)C(=O)[C@@H]1Cc1ccc(C(F)(F)F)cc1 [PP0271] ([NMeL][Gly(cBu)][NMeA][Aze][NPrPhe(4-CF3)][Sar][hPhe(3-Cl-4-CF3)]P[Ac5c][NMeGly(cPent)][NMeD]-Morpholide; lactam N-11)	6.5	C (A compound having a KD ratio of 0.1 or more and less than 3 is denoted as C)	B (a compound having 3 or more and less than 10 is denoted as B)
CCCN1C(=O)[C@@H]2CCN2C(=O)[C@H](C)N(C)C(=O)[C@H](C2CCCC2)NC(=O)[C@H](CC(C)C)N(C)C(=O)C[C@@H](C(=O)N2CCOCC2)N(C)C(=O)[C@H](C2CCCC2)N(C)C(=O)C2(CCCC2)NC(=O)[C@@H]2CCCN2C(=O)[C@H](CCc2ccc(C(F)(F)F)c(Cl)c2)NC(=O)CN(C)C(=O)[C@@H]1Cc1ccc(C(F)(F)F)cc1 [PP0272] ([NMeL][Gly(cPent)][NMeA][Aze][NPrPhe(4-CF3)][Sar][hPhe(3-Cl-4-CF3)]P[Ac5c][NMeGly(cPent)][NMeD]-Morpholide; lactam N-11)	3.7	C (A compound having a KD ratio of 0.1 or more and less than 3 is denoted as C)	B (a compound having 3 or more and less than 10 is denoted as B)
CCCN1C(=O)[C@@H]2CCN2C(=O)CN(C2CC2)C(=O)[C@H]([C@@H](C)CC)NC(=O)[C@H](CC(C)C)N(C)C(=O)C[C@@H](C(=O)N2CCOCC2)N(C)C(=O)[C@H](C2CCCC2)N(C)C(=O)C2(CCCC2)NC(=O)[C@@H]2CCCN2C(=O)[C@H](CCc2ccc(C(F)(F)F)c(Cl)c2)NC(=O)CN(C)C(=O)[C@@H]1Cc1ccc(C(F)(F)F)cc1 [PP0273] ([NMeL]I[NcPrGly][Aze][NPrPhe(4-CF3)][Sar][hPhe(3-Cl-4-CF3)]P[Ac5c][NMeGly(cPent)][NMeD]-Morpholide; lactam N-11)	12.2	C (A compound having a KD ratio of 0.1 or more and less than 3 is denoted as C)	B (a compound having 3 or more and less than 10 is denoted as B)
